Earlier results as cited in patent US20050107870A1, “Medical device with multiple coating layers” (priority 2003, published 2005).
Structures can show the parent of a compound that is named as a salt.

Experiments:
[1] = hydrophilic magnetically responsive microspheres
[2] = tested on: breast cancer cells
[3] = tested on: cancer cells; details: exposed to low-level electromagnetic fields present in some North American homes

For COc1cccc2c1C(=O)c1c(O)c3c(c(O)c1C2=O)C[C@@](O)(C(=O)CO)C[C@@H]3O[C@H]1C[C@H](N)[C@H](O)[C@H](C)O1 [adriamycin, doxorubicin hydrochloride], the “incorporated concentration of therapeutic agent in microspheres” value [1] is listed as “up to 50 wt %”.
In the case of COc1ccc2[nH]cc(CCNC(C)=O)c2c1 [melatonin], the “growth of breast cancer cells” value ([2]; cells exposed to 2 milligauss magnetic fields) is listed as “inhibit the growth of breast cancer cells” and the “growth-inhibiting activity on breast cancer cells” value ([2]; cells in a 12 milliGauss field) is listed as “essentially reased”.
In the case of CC/C(=C(\c1ccccc1)c1ccc(OCCN(C)C)cc1)c1ccccc1 [tamoxifen], the “ability to halt the proliferation of cancer cells” value [3] is given as “lost its ability to halt the proliferation of cancer cells”.
